# Results published in PubChem BioAssay AID1919016 (Molecular Pharmacology Branch, DTP, NCI, 2023).
# pIC50: −log10 of the molar value.
# System: NCI-H196 complex spheroid growth, percent test/control
# Experiment: Anticancer human tumor NCI-H196 cell line growth inhibition [AhR];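 further: seven days of drug exposure starting three days after plating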;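 on viability, T/C: 100% = DMSO vehicle control wells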
# Details: for pIC50: curve of first compound; for viability, T/C: stronger effect = lower value
# In short: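 Agents were dosed in half-log steps down from roughly clinical Cmax, or from 10 microM where Cmax was unknown, alone and with AhR antagonists. Read-out: percent test/control growth of tumor spheroids containing HUVEC and MSC stromal cells.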
# [1] = second compound 0.1 µM, first compound 0.0316 µM
# [2] = second compound 0.1 µM, first compound 0.1 µM
# [3] = second compound 0.1 µM, first compound 0.316 µM
# [4] = second compound 0.1 µM, first compound 1 µM
# [5] = second compound 0.1 µM, first compound 3.16 µM
# [6] = second compound 0.1 µM, first compound 10 µM
# [7] = second compound 0.316 µM, first compound 0.0316 µM
# [8] = second compound 0.316 µM, first compound 0.1 µM
# [9] = second compound 0.316 µM, first compound 0.316 µM
# [10] = second compound 0.316 µM, first compound 1 µM
# [11] = second compound 0.316 µM, first compound 3.16 µM
# [12] = second compound 0.316 µM, first compound 10 µM
# [13] = second compound 1 µM, first compound 0.0316 µM
# [14] = second compound 1 µM, first compound 0.1 µM
# [15] = second compound 1 µM, first compound 0.316 µM
# [16] = second compound 1 µM, first compound 1 µM
# [17] = second compound 1 µM, first compound 3.16 µM
# [18] = second compound 1 µM, first compound 10 µM
# [19] = second compound 3.16 µM, first compound 0.0316 µM
# [20] = second compound 3.16 µM, first compound 0.1 µM
# [21] = second compound 3.16 µM, first compound 0.316 µM
# [22] = second compound 3.16 µM, first compound 1 µM
# [23] = second compound 3.16 µM, first compound 3.16 µM
# [24] = second compound 3.16 µM, first compound 10 µM
# [25] = second compound 10 µM, first compound 0.0316 µM
# [26] = second compound 10 µM, first compound 0.1 µM
# [27] = second compound 10 µM, first compound 0.316 µM
# [28] = second compound 10 µM, first compound 1 µM
# [29] = second compound 10 µM, first compound 3.16 µM
# [30] = second compound 10 µM, first compound 10 µM
compound,measurement,setting,value
CC(C)c1c(-c2ccccc2)nc2c(C#N)c[nH]n2c1=O + Cc1cncc(-c2nc(NCCc3c[nH]c4ccccc34)c3ncn(C(C)C)c3n2)c1,pIC50,second compound 0.1 µM,< 5.00
same,pIC50,second compound 0.316 µM,< 5.00
same,pIC50,second compound 1 µM,< 5.00
same,pIC50,second compound 3.16 µM,< 5.00
same,pIC50,second compound 10 µM,< 5.00
same,"viability, T/C",[1],107%
same,"viability, T/C",[2],110%
same,"viability, T/C",[3],105%
same,"viability, T/C",[4],100%
same,"viability, T/C",[5],117%
same,"viability, T/C",[6],106%
same,"viability, T/C",[7],103%
same,"viability, T/C",[8],120%
same,"viability, T/C",[9],113%
same,"viability, T/C",[10],109%
same,"viability, T/C",[11],113%
same,"viability, T/C",[12],107%
same,"viability, T/C",[13],120%
same,"viability, T/C",[14],112%
same,"viability, T/C",[15],115%
same,"viability, T/C",[16],103%
same,"viability, T/C",[17],112%
same,"viability, T/C",[18],101%
same,"viability, T/C",[19],116%
same,"viability, T/C",[20],117%
same,"viability, T/C",[21],119%
same,"viability, T/C",[22],102%
same,"viability, T/C",[23],115%
same,"viability, T/C",[24],112%
same,"viability, T/C",[25],75.9%
same,"viability, T/C",[26],86.7%
same,"viability, T/C",[27],89.5%
same,"viability, T/C",[28],86.9%
same,"viability, T/C",[29],80.7%
same,"viability, T/C",[30],80.7%
COc1cc(C2c3cc4c(cc3C(OC3OC5COC(C)OC5C(O)C3O)C3COC(=O)C23)OCO4)cc(OC)c1O (stereo not given) + Cc1ccccc1N=Nc1ccc(NC(=O)c2ccnn2C)c(C)c1,pIC50,second compound 0.1 µM,< 5.00
same,pIC50,second compound 0.316 µM,< 5.00
same,pIC50,second compound 1 µM,< 5.00
same,pIC50,second compound 3.16 µM,< 5.00
same,pIC50,second compound 10 µM,< 5.00
same,"viability, T/C",[1],97.3%
same,"viability, T/C",[2],93.5%
same,"viability, T/C",[3],87.4%
same,"viability, T/C",[4],86.2%
same,"viability, T/C",[5],87.9%
same,"viability, T/C",[6],76.8%
same,"viability, T/C",[7],92.1%
same,"viability, T/C",[8],95%
same,"viability, T/C",[9],96.8%
same,"viability, T/C",[10],89.8%
same,"viability, T/C",[11],91.2%
same,"viability, T/C",[12],75.6%
same,"viability, T/C",[13],93.5%
same,"viability, T/C",[14],94.6%
same,"viability, T/C",[15],93.5%
same,"viability, T/C",[16],92.1%
same,"viability, T/C",[17],100%
same,"viability, T/C",[18],74.3%
same,"viability, T/C",[19],89%
same,"viability, T/C",[20],94.7%
same,"viability, T/C",[21],91.4%
same,"viability, T/C",[22],79.5%
same,"viability, T/C",[23],87.1%
same,"viability, T/C",[24],75.3%
same,"viability, T/C",[25],85.7%
same,"viability, T/C",[26],84.3%
same,"viability, T/C",[27],89.3%
same,"viability, T/C",[28],93%
same,"viability, T/C",[29],88%
same,"viability, T/C",[30],78.9%
